In this assay the test system is AMP-activated protein kinase (AMPK). Description: ADP Quest assay for AMPK activators. Format: biochemical. Also on record: key: fold AMPK activation at 30 μM activator vs none. The conditions noted are these: fold of AMPK activation to phosphorylate SAMS peptide without and with an activator at the concentration of 30 μM. The protocol:
This method evaluates AMP-activated protein kinase (AMPK) activity through detecting the accumulation of ADP product using an ADP Quest kit and determining the E30 values of the small molecular AMPK activators. ADP Quest kit (DiscoveRx, Fremont, Calif.) is stored at −20° C. before use. Before an experiment, thaw the kit (include assay buffer, ADP standard solution, reagent A and reagent B) and equilibrate to room temperature. Dispense the ADP Quest reagents into single-use aliquots and store at −20° C. The compound concentrations typically range from 0 μM to 100 μM by 2-fold dilution. AMP concentrations range from 0.98 μM to 1 mM as the reference control. In an assay, thaw and equilibrate the assay buffer, reagent A and reagent B to room temperature for 30 minutes prior to use. Mix ATP, SAMS peptide substrate and compound, and place them into the 384-well assay plate. Add reagent A and B based on the assay kit protocol. Incubate the assay plate at room temperature for 30 minutes after addition the mixture followed by the addition of AMPK protein (Invitrogen, CA) to initiate the AMPK phosphorylation reaction. At the same time, reactions with AMPK activator AMP in the absence of enzyme is included as blank control. The reaction fluorescence signal is monitored and recorded on Envision in kinetic mode with the excitation wavelength of 530 nm and emission wavelength of 590 nm. The E30 value, defined as the fold of AMPK activation to phosphorylate SAMS peptide without and with an activator at the concentration of 30 μM, is calculated and analyzed using Prism 5.0.
Compound `CC(C)(Nc1cccc(C2CC(C)(C)c3cc(Cl)ccc3N2)c1)C(=O)O` (stereo not shown) [Example 1, 2-[3-(6-Chloro-4,4-dimethyl-1,2,3,4-tetrahydro-quinolin-2-yl)-phenylamino]-2-methyl-propionic acid] had an E30 of 3.30. As to `CC1(C)CC(c2cccc(NC3(C(=O)O)CC3)c2)Nc2ccc(Cl)cc21` (stereo not shown) [Example-2, 1-[3-(6-Chloro-4,4-dimethyl-1,2,3,4-tetrahydro-quinolin-2-yl)-phenylamino]-cyclopropanecarboxylic acid], the E30 is on record as 2.63. As for `CC(C)(Nc1cccc(C2CC(C)(C)c3cc(C#N)ccc3N2)c1)C(=O)O` (stereo not shown) [Example-3, 2-[3-(6-Cyano-4,4-dimethyl-1,2,3,4-tetrahydro-quinolin-2-yl)-phenylamino]-2-methyl-propionic acid], the figure is 2.88; as for `CC1(C)CC(c2cccc(NC3(C(=O)O)CC3)c2)Nc2ccc(C#N)cc21` (stereo not shown) [Example-4, 1-[3-(6-Cyano-4,4-dimethyl-1,2,3,4-tetrahydro-quinolin-2-yl)-phenylamino]-cyclopropanecarboxylic acid], 2.43.

The compound `CC1(C)CC(c2cccc(NC3(C(=O)O)CC3)c2)Nc2c(C(=O)O)cccc21` (stereo not shown) [Example-5, 2-[3-(1-Carboxy-cyclopropylamino)-phenyl]-4,4-dimethyl-1,2,3,4-tetrahydro-quinoline-8-carboxylic acid] displayed an E30 of 2.44. For `CC1(C)CC(c2cccc(NC3(C(=O)O)CC3)c2)Nc2c(C(=O)O)cc(Cl)cc21` (stereo not shown) [Example-6, 2-[3-(1-Carboxy-cyclopropylamino)-phenyl]-6-chloro-4,4-dimethyl-1,2,3,4-tetrahydro-quinoline-8-carboxylic acid] the value was 2.72; for `CC(C)(Nc1cccc(C2CC(C)(C)c3cc(Cl)cc(C(=O)O)c3N2)c1)C(=O)O` (stereo not shown) [Example-7, 2-[3-(1-Carboxy-1-methyl-ethylamino)-phenyl]-6-chloro-4,4-dimethyl-1,2,3,4-tetrahydro-quinoline-8-carboxylic acid], 2.27.

For `Cc1cc(C#N)cc2c1NC(c1cccc(NC3(C(=O)O)CC3)c1)CC2(C)C` (stereo not shown) [Example-8, 1-[3-(6-Cyano-4,4,8-trimethyl-1,2,3,4-tetrahydro-quinolin-2-yl)-phenylamino]-cyclopropanecarboxylic acid], the E30 was 1.68. As for `CC(C)(Nc1cccc(C2CC(C)(C)c3cc(C(F)(F)F)ccc3N2)c1)C(=O)O` (stereo not shown) [Example-9, 2-[3-(4,4-Dimethyl-6-trifluoromethyl-1,2,3,4-tetrahydro-quinolin-2-yl)-phenylamino]-2-methyl-propionic acid], the figure is 2.34. For `CC1(C)CC(c2ccccc2NS(C)(=O)=O)Nc2ccc(Cl)cc21` (stereo not shown) [Example-10, N-[2-(6-Chloro-4,4-dimethyl-1,2,3,4-tetrahydro-quinolin-2-yl)-phenyl]-methanesulfonamide] the value was 1.70. On to `CN1c2ccc(C(F)(F)F)cc2C(C)(C)CC1c1cccc(NC(C)(C)C(=O)O)c1` (stereo not shown) [Example-11, 2-Methyl-2-[3-(1,4,4-trimethyl-6-trifluoromethyl-1,2,3,4-tetrahydro-quinolin-2-yl)-phenylamino]-propionic acid], for which the E30 was 2.48. Compound `Cc1cc(C#N)cc2c1NC(c1cccc(NC(C)(C)C(=O)O)c1)CC2(C)C` (stereo not shown) [Example-12, 2-[3-(6-Cyano-4,4,8-trimethyl-1,2,3,4-tetrahydro-quinolin-2-yl)-phenylamino]-2-methyl-propionic acid] came in with an E30 of 2.37.

Compound `CN1c2ccc(C(F)(F)F)cc2C(C)(C)CC1c1cccc(NC2(C(=O)O)CC2)c1` (stereo not shown) [Example-13, 1-[3-(1,4,4-Trimethyl-6-trifluoromethyl-1,2,3,4-tetrahydro-quinolin-2-yl)-phenylamino]-cyclopropanecarboxylic acid] yielded an E30 of 2.08. For `CC1(C)CC(c2ccccc2NS(=O)(=O)c2cccc(F)c2)Nc2ccc(Cl)cc21` (stereo not shown) [Example-14, N-[2-(6-Chloro-4,4-dimethyl-1,2,3,4-tetrahydro-quinolin-2-yl)-phenyl]-3-fluoro-benzenesulfonamide] the value was 1.78; for `CC(C)(Nc1cccc(C2CC(C)(C)c3cccc(C(=O)O)c3N2)c1)C(=O)O` (stereo not shown) [Example-15, 2-[3-(1-Carboxy-1-methyl-ethylamino)-phenyl]-4,4-dimethyl-1,2,3,4-tetrahydro-quinoline-8-carboxylic acid], 1.88.

For `CCS(=O)(=O)Nc1ccccc1C1CC(C)(C)c2cc(Cl)ccc2N1` (stereo not shown) [Example-16, Ethanesulfonic acid [2-(6-chloro-4,4-dimethyl-1,2,3,4-tetrahydro-quinolin-2-yl)-phenyl]-amide], the E30 is 1.89. As for `CC1(C)CC(c2cccc(NC3(C(=O)O)CC3)c2)Nc2ccc(C(F)(F)F)cc21` (stereo not shown) [Example-17, 1-[3-(4,4-Dimethyl-6-trifluoromethyl-1,2,3,4-tetrahydro-quinolin-2-yl)-phenylamino]-cyclopropanecarboxylic acid], the figure is 1.91. In turn, `CC1(C)CC(c2cccc(NC3(C(=O)O)CC3)c2)Nc2c(Cl)cc(C#N)cc21` (stereo not shown) [Example-18, 1-[3-(8-Chloro-6-cyano-4,4-dimethyl-1,2,3,4-tetrahydro-quinolin-2-yl)-phenylamino]-cyclopropanecarboxylic acid] yielded an E30 of 1.79. For `CC1(C)CC(c2ccccc2NS(=O)(=O)c2ccc(F)cc2)Nc2ccc(Cl)cc21` (stereo not shown) [Example-19, N-[2-(6-Chloro-4,4-dimethyl-1,2,3,4-tetrahydro-quinolin-2-yl)-phenyl]-4-fluoro-benzenesulfonamide] the value was 1.64; for `CC(C)(Nc1ccccc1C1CC(C)(C)c2cc(C#N)ccc2N1)C(=O)O` (stereo not shown) [Example-20, 2-[2-(6-Cyano-4,4-dimethyl-1,2,3,4-tetrahydro-quinolin-2-yl)-phenylamino]-2-methyl-propionic acid], 1.57; for `CC1(C)CC(c2ccccc2NS(=O)(=O)c2ccccc2F)Nc2ccc(Cl)cc21` (stereo not shown) [Example-21, N-[2-(6-Chloro-4,4-dimethyl-1,2,3,4-tetrahydro-quinolin-2-yl)-phenyl]-2-fluoro-benzenesulfonamide], 1.75. As for `CC1(C)CC(c2ccccc2NC2(C(=O)O)CC2)Nc2ccc(Cl)cc21` (stereo not shown) [Example-22, 1-[2-(6-Chloro-4,4-dimethyl-1,2,3,4-tetrahydro-quinolin-2-yl)-phenylamino]-cyclopropanecarboxylic acid], the figure is 1.40; as for `CC1(C)CC(c2ccccc2NS(C)(=O)=O)Nc2ccc(C#N)cc21` (stereo not shown) [Example-23, N-[2-(6-Cyano-4,4-dimethyl-1,2,3,4-tetrahydro-quinolin-2-yl)-phenyl]-methanesulfonamide], 1.14. Take `CN1c2ccc(C#N)cc2C(C)(C)CC1c1cccc(NC(C)(C)C(=O)O)c1` (stereo not shown) [Example-24, 2-[3-(6-Cyano-1,4,4-trimethyl-1,2,3,4-tetrahydro-quinolin-2-yl)-phenylamino]-2-methyl-propionic acid]: the E30 was found to be 3.22. For `CC1(C)CC(c2ccccc2NC2(C(=O)O)CC2)Nc2ccc(C#N)cc21` (stereo not shown) [Example-25, 1-[2-(6-Cyano-4,4-dimethyl-1,2,3,4-tetrahydro-quinolin-2-yl)-phenylamino]-cyclopropanecarboxylic acid] the value was 2.02; for `CC(C)(Nc1ccccc1C1CC(C)(C)c2cc(Cl)ccc2N1)C(=O)O` (stereo not shown) [Example-26, 2-[2-(6-Chloro-4,4-dimethyl-1,2,3,4-tetrahydro-quinolin-2-yl)-phenylamino]-2-methyl-propionic acid], 1.26.

Compound `CN1c2ccc(C#N)cc2C(C)(C)CC1c1cccc(NC2(C(=O)O)CC2)c1` (stereo not shown) [Example-28, 1-[3-(6-Cyano-1,4,4-trimethyl-1,2,3,4-tetrahydro-quinolin-2-yl)-phenylamino]-cyclopropanecarboxylic acid] had an E30 of 2.46. For `CC(C)(Nc1cccc(C2CC(C)(C)c3cc(C#N)cc(Cl)c3N2)c1)C(=O)O` (stereo not shown) [Example-29, 2-[3-(8-Chloro-6-cyano-4,4-dimethyl-1,2,3,4-tetrahydro-quinolin-2-yl)-phenylamino]-2-methyl-propionic acid] the value was 2.70; for `Cc1cc(F)cc2c1NC(c1cccc(NC(C)(C)C(=O)O)c1)CC2(C)C` (stereo not shown) [Example-31, 2-[3-(6-Fluoro-4,4,8-trimethyl-1,2,3,4-tetrahydro-quinolin-2-yl)-phenylamino]-2-methyl-propionic acid], 2.16. As for `CC1(C)CC(c2ccccc2NC(=O)c2ccc(F)cc2)Nc2ccc(C(=O)O)cc21` (stereo not shown) [Example-32, 2-[2-(4-Fluoro-benzoylamino)-phenyl]-4,4-dimethyl-1,2,3,4-tetrahydro-quinoline-6-carboxylic acid], the figure is 1.31; as for `CCS(=O)(=O)Nc1ccccc1C1CC(C)(C)c2cc(C(=O)O)ccc2N1` (stereo not shown) [Example-33, 2-(2-Ethanesulfonylamino-phenyl)-4,4-dimethyl-1,2,3,4-tetrahydro-quinoline-6-carboxylic acid], 2.13.

The record behind these values is US8546427B2, “Tetrahydroquinoline derivatives” (Hoffmann-La Roche Inc., priority 2010, dated 2013).
